Test results: US20210030005A1, “BENZOXABOROLE COMPOSITIONS HAVING A GROWTH ENHANCING EFFECT” (BORAGEN, INC., priority 2018, published 2021)

Key:
[1] = tested on: wheat seedlings; assay: Soil drench treatment on wheat seedlings (perlite); format: in vivo; conditions: for Mean Root Length: 10 days after germination, measured 10 days following drench
Method: (§1) Sample soil drench treatments were prepared by dissolving […], 3.19 mg, or 3.99 mg of BAG8 in 67.5 mL of acetone in separate vials. Each vial was then added to 202.5 mL of water and shaken vigorously to produce a suitable sample for soil drench treatment at rates of 75 g/A, 100 g/A, and 125 g/A, respectively.
Wheat seeds were sown into pots filled with perlite growth medium and allowed to germinate under normal glass house conditions. 10 days after germination the pots were drenched with the respective BAG8 solutions. 10 days following the drench, root and stem lengths were measured. Analysis of variance was used to examine root length data and means were separated using Fisher's least significant difference at α=0.05.

[2] = tested on: diseased soybeans; assay: Field trial, yield of diseased soybeans; format: in vivo, soybean
Method: (§2) In this example, diseased soybeans having Asian Soybean Rust (Phakopsora pachyrhizi) were treated with BAG8 and Azoxystrobin. Testing was performed to assess the fungicidal effect of the compounds on Asian Soybean Rust and to assess the growth enhancing effects of the compounds on the diseased soybeans.
(§3) Soybeans were planted into 6×30 ft plots and replicated four times in a randomized complete block design. Two treatments and an untreated control were tested for efficacy against Asian Soybean Rust (Phakopsora pachyrhizi) and assessed for yield at the conclusion of the growing season. Foliar applications of the two treatments, BAG8 at 0.25 pounds of active ingredient per acre and azoxystrobin at 0.25 pounds of active ingredient per acre, were applied to the plots at two separate times: growth stage R1 (flowering) and growth stage R3 (bean pod formation). Best practices were used consistently across the test plots with regard to field conditions such as fertilization, insect control, weed control, and irrigation. Disease assessments were taken in each plot 28 days after the final foliar fungicide application. At maturity, each plot was harvested using standard harvesting equipment. After shelling, the beans were weighed at 13% moisture and yield calculations extrapolated to bushels per acre.
(§4) Analysis of variance (ANOVA) was used to examine disease severity data and means were separated using Fisher's least significant difference (LSD) method at α=0.05. […]

[3] = tested on: turnips; assay: Soil drench growth enhancing effect, turnip; format: in vivo; conditions: for Average Dry Matter Weight / Average Root Length / Average Shoot Height: 4 treatments every 14 days, 14 days after final treatment
Method: Boron-containing compounds/compositions were applied directly to the soil, and the growth of plants was measured. An exemplary embodiment of a benzoxaborole compound includes 5-chlorobenzo[c][1,2]oxaborol-1(3H)-ol, which may be referred to herein as BAG8.
Eight 2-gallon pots were filled with steamed soil for each of the five treatments listed below:
3-4 seeds were planted into each pot at a depth of 1 inch and covered. All seedlings were subjected to 16 hours of daylight at ˜800 μmol/m^2/second (light intensity) provided by cool-white fluorescent lamps. Daytime temperatures were ˜25° C. and were dropped to ˜18° C. at night.
Solutions were prepared by first dissolving the appropriate amount of benzoxaborole in ethanol or acetone then adding to distilled water. 100 mL of treatment was applied to each pot in a circular motion to evenly coat the surface of the soil. These treatments were applied every 14 days for a total of 4 treatments, including the at-planting treatment. Each pot was monitored, and 50 mL of distilled water was added to each pot when soil was dry.
Germination and shoot height data were recorded every seven days. 14 days after the final treatment application, plants were carefully removed from each pot and final shoot length, root length, and dry matter weight were recorded.
This experiment was conducted on red table beet, broccoli, snow pea, turnips, and spring wheat.

[4] = tested on: Asian Soybean Rust (Phakopsora pachyrhizi); assay: Field trial, Asian Soybean Rust severity on soybean; format: in vivo
Method: as §2, §3, §4

[5] = tested on: canola seedlings; assay: Soil drench treatment on canola seedlings (perlite); format: in vivo; conditions: for Mean Stem Length: 10 days after germination, measured 10 days following drench
Method: as §1
Canola seeds were sown into pots filled with perlite growth medium and allowed to germinate under normal glass house conditions. 10 days after germination the pots were drenched with the respective BAG8 solutions. 10 days following the drench, stem lengths were measured. Analysis of variance was used to examine stem length data and means were separated using Fisher's least significant difference at α=0.05.

[6] = tested on: maize seeds; assay: Seed treatment growth effect on maize (germination trays); format: in vivo; conditions: for Mean Root Length / Mean Stem Length: suspension concentrate, 10 days
Method: A sample suspension concentrate was prepared by mixing 0.8 g of Atlas G-5002L, 0.8 g ATLOX 4913, 5 g of glycerin, 50 mg of anti-foam compound, 0.178 g of xanthan gum, 89 mg of anti-microbial, 53.08 g of water, and 40 g of BAG8. […] […] The container was then shaken to evenly coat the seeds and allowed to dry overnight. Once dry, 50 seeds from each rate and 50 untreated seeds were placed in separate seed germination trays with moist paper towel. 10 days later, root and stem lengths from each seed were taken. Analysis of variance was used to examine root and stem length data and means were separated using Fisher's least significant difference at α=0.05.

[7] = tested on: Southern Rust of Maize (Puccinia polysora); assay: Field trial, Southern Rust of Maize severity on maize; format: in vivo
Method: In this example, diseased maize having Southern Rust of Maize (Puccinia polysora) was treated with BAG8, Azoxystrobin, and Boscalid. Testing was performed to assess the fungicidal effect of the compounds on Southern Rust of Maize (Puccinia polysora) and to assess the growth enhancing effect of the compounds on the diseased maize.
Maize was planted into 6×30 ft plots and replicated four times in a randomized complete block design. Three treatments and an untreated control were tested for efficacy against Southern Rust of Maize (Puccinia polysora) and assessed for yield at the conclusion of the growing season. Foliar applications of the three treatments, BAG8 at 0.25 pounds of active ingredient per acre, azoxystrobin at 0.25 pounds of active ingredient per acre, and boscalid at 0.24 pounds of active ingredient per acre, were applied to the plots at growth stage V8. Best practices were used consistently across the test plots with regard to field conditions such as fertilization, insect control, weed control, and irrigation. Disease assessments were taken in each plot 28 days after the foliar fungicide application. At maturity, each plot was harvested using standard harvesting equipment. After shelling, the kernels were weighed at 11% moisture and yield calculations extrapolated to bushels per acre.
as §4

[8] = treatment B, 0.12 lb/A soil drench
[9] = treatment C, 0.25 lb/A soil drench
[10] = treatment D, 0.35 lb/A soil drench
[11] = treatment E, 0.60 lb/A soil drench
[12] = all tested application rates, maize seed treatment

OB1OCc2cc(Cl)ccc21 [BAG8, 5-chlorobenzo[c][1,2]oxaborol-1(3H)-ol]
increased root length relative to untreated control ([1]; all tested application rates, soil drench, wheat seedlings): 27-45% | Mean Root Length ([1]; soil drench 75 g ai/A): 580.4 mm | Mean Root Length ([1]; soil drench 100 g ai/A): 524.2 mm | Mean Root Length ([1]; soil drench 125 g ai/A): 507.0 mm | increased soybean yield ([2]; 0.25 lb ai/A foliar): 281% | Yield ([2]; 0.25 lb ai/A foliar at R1 and R3, harvest at maturity, 13% moisture): 55.6 a bu/A | growth effect compared with untreated control ([3]; all rates (0.12-0.60 lb/A), soil drench): longer shoots, longer roots, and greater dry matter weight than the untreated control | Average Dry Matter Weight [3, 8]: 6.40 mg | Average Root Length [3, 8]: 3.67 cm | Average Shoot Height [3, 8]: 1.81 cm | Average Dry Matter Weight [3, 9]: 7.62 mg | Average Root Length [3, 9]: 4.96 cm | Average Shoot Height [3, 9]: 2.09 cm | Average Dry Matter Weight [3, 10]: 7.82 mg | Average Root Length [3, 10]: 4.02 cm | Average Shoot Height [3, 10]: 2.18 cm | Average Dry Matter Weight [3, 11]: 6.36 mg | Average Root Length [3, 11]: 3.15 cm | Average Shoot Height [3, 11]: 2.13 cm | reduced disease in comparison to untreated control ([4]; 0.25 lb ai/A foliar): 47% | Disease Severity (% Leaf Coverage) ([4]; 0.25 lb ai/A foliar at R1 and R3, 28 days after final application): 48.2 c % Leaf Coverage | increased root length ([5]; all tested application rates, soil drench, canola seedlings): 19-65% | Mean Stem Length ([5]; soil drench 75 g ai/A): 39.2 mm | Mean Stem Length ([5]; soil drench 100 g ai/A): 33.8 mm | Mean Stem Length ([5]; soil drench 125 g ai/A): 47.1 mm | increased root length relative to untreated control [6, 12]: 49-70% | increased stem length relative to untreated control [6, 12]: 54-75% | Mean Root Length ([6]; seed treatment 0.25 lb ai/A): 122.0 mm | Mean Stem Length ([6]; seed treatment 0.25 lb ai/A): 141.0 mm | Mean Root Length ([6]; seed treatment 0.50 lb ai/A): 110.2 mm | Mean Stem Length ([6]; seed treatment 0.50 lb ai/A): 124.5 mm | Mean Root Length ([6]; seed treatment 0.75 lb ai/A): 125.1 mm | Mean Stem Length ([6]; seed treatment 0.75 lb ai/A): 136.5 mm | reduced disease relative to the untreated control ([7]; 0.25 lb ai/A foliar): 70% | Disease Severity (% Leaf Coverage) ([7]; 0.25 lb ai/A foliar at V8, 28 days after application): 19.6 b % Leaf Coverage
